Assay [1] has as its system 5-HT-mediated head-twitch response. Put plainly: Head-Twitch Test (5-HTP-induced head-twitch response in mice). The class given is in vivo. To be noted: oral, vs control vehicle. As to the method:
The head-twitch response of mice is initiated by a variety of 5-HT mimetic drugs. The test was conducted in a manner similar to the procedure described by Heal, D. J., Philpot, J, O'Shaughnessy, K. M. and Davies, C. L.: The influence of central noradrenergic function on 5-HT-mediated head-twitch responses in mice: Possible implications for the actions of antidepressant drugs. Psychopharmacology 89: 414-420, 1986,
The head-twitch consisted of a characteristic rotation of the head, neck and shoulders of the mice. The test drug or vehicle was given by oral gavage. Thirty minutes later all animals were pretreated with carbidopa (25 mg/kg ip). Fifteen minutes following carbidopa administration, the mice were injected with 100 mg/kg ip of L-5-hydroxytryptophan (5-HTP). The animals were then left for 30 minutes before measurement of the head-twitch response in the following 2-minute period. For calculation of percent (%) response increase, the difference in drug head twitch number versus the control vehicle head twitch number is divided by the control head twitch and multiplied by 100.

A short description of assay [2]: Behavior Despair (Forced Swimming) test in mice (ip). Format: in vivo. To be noted: 30 mg/kg (ip), 15-minute test period, vs control vehicle. As for the experimental part:
(§1) Behavior Despair (Forced Swimming) test, a well known pharmacological screening method for depression, was conducted similary to the test described by Porsolt, R. D., Bertin, A and Jalfre, M.: Behavior despair in mice: A preliminary screening test for antidepressants. Arch. Int. Pharmacodyn. Ther. 229: 327-336, 1977.
Mice were dosed intraperitoneally (ip) with either test compound or vehicle. One hour later each animal was placed in a 1500 mL glass beaker containing water at room temperature. Mice were kept in the water for a period of 15 minutes and the duration of immobility observed within the 15-minute test period was recorded. A mouse was judged to be immobile if it floated motionlessly in the water making only those movements necessary to keep its head above the water. For calculation of percent (%) reduction in immobility time, the difference in immobility time for control vehicle versus the drug is divided by the immobility time of the control vehicle and multiplied by 100.

In a further assay the test system is MAO-A. Put plainly: MAO-A inhibiting activity in vitro, rat liver mitochondrial membranes. The class given is biochemical. To be noted: 10 uM; 300 nM deprenyl to block MAO-B; 60 minutes preincubation, 37° C., pH 7.2; [14C] Serotonin. As to the method:
The MAO-A activities in vitro were measured using Rat liver mitochondrial membranes as the source of the enzyme, according to a modified method of S. Otsuka & Y. Kobayashi: A Radioisotopic Assay for Monoamine Oxidase Determinations in Human Plasma. Biochem. Pharmacol. 13: 995-1006 (1964)
Rat liver mitochondrial membranes are preincubated with drug or vehicle, and subtype selective blocker (300 nM deprenyl to block the B type of MAO) for 60 minutes at 37° C. in 100 mM KPO4 (pH 7.2). [^14 C] Serotonin ([…]) is then added and incubated for 10 minutes. The reaction is stopped by the addition of 0.5 ml of 2M citric acid. Radioactive product is extracted into a toluene/ethyl acetate fluor and compared to control values by scintillation spectrophotometry in order to ascertain any interactions of test compounds with MAO-A.

Assay [3] can be described thus: Behavior Despair (Forced Swimming) test in rats (po). Format: in vivo. The following applies: 60 mg/kg (po), 4-minute test period, vs control vehicle. As for the experimental part:
as §1
Rats were pre-swam for 10 minutes the day before the test in 4000 mL glass cylinders containing water at 25° C. On the following day, rats were dosed orally (po) with either test compound or vehicle. One hour later each animal was placed in a glass cylinder and, following a 2-minute pretest, immobility was recorded for a 4-minute test period. For calculation of percent (%) reduction in immobility time, the difference in immobility time for control vehicle versus the drug is divided by the immobility time of the control vehicle and multiplied by 100.

Experimental findings from patent US5955471A, “Tetrahydroisoquinolinealkanol derivatives and pharmaceutical compositions containing same” (SK Corporation, priority 1998, dated 1999) are described below.

The structures appear in SMILES notation.

On to `CN1Cc2ccccc2C[C@H]1COC(N)=O` [Example 8, (S)-3-Carbamoyloxymethyl-N-methyl-1,2,3,4-tetrahydroisoquinoline], for which, in assay [1] (1 mg/kg), the “% Response Increase” value was 77%.
Take `CNC(=S)OC[C@@H]1Cc2ccccc2CN1C` [Example 18]: the “% Reduction (immobility time)” value in assay [2] was 33%.
For `NC(=O)OC[C@@H]1Cc2ccccc2CN1` [Example 5, (S)-3-Carbamoyloxymethyl-1,2,3,4-tetrahydroisoquinoline], the “% Response Increase” value in assay [1] (3 mg/kg) was found to be 144%.
Regarding `NC(=O)OC[C@H]1Cc2ccccc2CN1` [Example 4, (R)-3-Carbamoyloxymethyl-1,2,3,4-tetrahydroisoquinoline], in assay [1] (15 mg/kg), the “% Response Increase” value amounted to 258%. In addition, the “% Inhibition (MAO-A)” value in the assay with MAO-A stood at 63.9%.
Take `NC(=S)OCC1Cc2ccccc2CN1` (centres unmarked) [Example 14, 3-Thiocarbamoyloxymethyl-1,2,3,4-tetrahydroisoquinoline]: the “% Response Increase” value in assay [1] (8 mg/kg) is 42%.
As for `CNC(=S)OC[C@@H]1Cc2ccccc2CN1` [Example 16, (S)-3-(N-Methylthiocarbamoyloxymethyl)-1,2,3,4-tetrahydroisoquinoline], in assay [2], the “% Reduction (immobility time)” value is given as 56%.
`NC(=O)OC[C@@H]1Cc2ccccc2CN1` [Example 3, (S)-3-Carbamoyloxymethyl-1,2,3,4-tetrahydroisoquinoline]: the “% Response Increase” value in assay [1] (1 mg/kg) amounted to 238%. The “% Reduction (immobility time)” value in assay [3] turned out to be 83%. Moreover, the “% Inhibition (MAO-A)” value with MAO-A is listed as 97.7%.
Turning to `CNC(=S)OC[C@@H]1Cc2ccccc2CN1C(=O)Nc1ccccc1` [Example 17, (S)-3-(N-Methyl-thiocarbamoyloxymethyl)-N-(anilinocarbonyl)-1,2,3,4-tetrahydroisoquinoline], the “% Reduction (immobility time)” value in assay [2] is 46%.
